Assay results reported in ChEMBL document CHEMBL1201862, “PubChem BioAssay data set” (2004).
Active and inactive are the calls of the source.

Tests used:
[1] = microbe, parasite or virus in culture; assay type: functional; details: Mycobacterium tuberculosis
[2] = Luminescence Cell-Based Dose Retest to Confirm Inhibitors of Cancer Stem Cells. [Related pubchem assays (depositor defined):AID2717, AID2721]; assay type: functional; details: Homo sapiens
[3] = target: T1, Short transient receptor potential channel 4 (Mus musculus, UniProt Q9QUQ5); experiment: block of DAMGO-driven TRPC4 calcium entry – cell-based, HEK293 TRPC4/mu-opioid, Fluo-4 calcium, dose response (AID 434942); assay type: functional;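 also: potency of inhibitors blocking the TRPC4 calcium response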
T1 sequence (Q9QUQ5 whole entry): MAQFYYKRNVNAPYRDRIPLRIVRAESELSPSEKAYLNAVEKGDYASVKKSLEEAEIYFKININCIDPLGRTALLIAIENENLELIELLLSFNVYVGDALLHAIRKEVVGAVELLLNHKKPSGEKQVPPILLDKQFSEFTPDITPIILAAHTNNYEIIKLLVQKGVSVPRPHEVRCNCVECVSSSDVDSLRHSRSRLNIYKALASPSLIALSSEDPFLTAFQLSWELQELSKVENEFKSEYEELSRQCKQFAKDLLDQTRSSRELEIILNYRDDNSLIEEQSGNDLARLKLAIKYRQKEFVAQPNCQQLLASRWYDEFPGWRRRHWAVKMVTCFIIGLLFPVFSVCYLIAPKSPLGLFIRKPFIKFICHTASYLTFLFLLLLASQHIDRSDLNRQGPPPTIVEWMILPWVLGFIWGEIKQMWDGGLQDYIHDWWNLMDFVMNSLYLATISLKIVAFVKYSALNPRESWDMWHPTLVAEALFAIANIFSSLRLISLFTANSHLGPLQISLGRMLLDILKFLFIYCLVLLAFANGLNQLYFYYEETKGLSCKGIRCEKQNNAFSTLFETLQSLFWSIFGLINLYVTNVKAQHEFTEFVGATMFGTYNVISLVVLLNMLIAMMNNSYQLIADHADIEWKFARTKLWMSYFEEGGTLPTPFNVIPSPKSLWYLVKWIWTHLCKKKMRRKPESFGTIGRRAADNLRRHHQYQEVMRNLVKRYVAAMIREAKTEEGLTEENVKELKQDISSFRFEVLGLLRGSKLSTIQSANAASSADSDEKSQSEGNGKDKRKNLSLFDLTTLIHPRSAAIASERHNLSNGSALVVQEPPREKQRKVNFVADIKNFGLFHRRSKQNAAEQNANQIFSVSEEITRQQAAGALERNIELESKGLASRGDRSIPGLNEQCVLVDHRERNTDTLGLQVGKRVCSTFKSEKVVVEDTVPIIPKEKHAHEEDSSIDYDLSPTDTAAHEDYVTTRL

[4] = A Cell Based Secondary Assay to Explore Cytotoxicity in THP-1 Cells of Compounds that Modulate Mycobacterium tuberculosis in Media Containing Glycerol versus Media without Glycerol (2).; assay type: functional
[5] = Vero cell cytotoxicity, cytotoxicity control for M. tuberculosis inhibitor project, purified and synthesized samples, set 3 (AID 504684); assay type: functional
[6] = A Cell Based Secondary Assay to Explore Cytotoxicity in HepG2 Cells of Compounds that Modulate Mycobacterium tuberculosis in Media Containing Glycerol versus Media without Glycerol (2).; assay type: functional
CHO-K1 = experiment: (§1) Counterscreen for antagonists of the orexin 1 receptor (OX1R; HCRTR1): Homogeneous time resolved fluorescence (HTRF)-based cell-based dose response assay to identify antagonists of the parental CHO-K1 cell line. [Related pubchem assays (depositor defined):AID434989, AID435008, AID463079, AID485270, AID492963, AID492964, AID492965, AID493232, AID504699, AID504701]; assay type: functional; details: Cricetulus griseus
[7] = as §1, with “Fluorescence-based” for “Homogeneous time resolved fluorescence (HTRF)-based”, “cell-based high throughput” for “cell-based”, “CHO” for “CHO-K1”; assay type: functional
[8] = target: T2, Orexin/Hypocretin receptor type 1 (Homo sapiens, UniProt O43613); experiment: Homogeneous Time Resolved Fluorescence (HTRF)-based cell-based high throughput dose response assay for antagonists of the orexin 1 receptor (OX1R; HCRTR1). [Related pubchem assays (depositor defined):AID434989, AID435008, AID463079, AID485270, AID492963, AID492964, AID492965, AID493232, AID504717, AID504718]; assay type: functional
T2 sequence (O43613 whole entry): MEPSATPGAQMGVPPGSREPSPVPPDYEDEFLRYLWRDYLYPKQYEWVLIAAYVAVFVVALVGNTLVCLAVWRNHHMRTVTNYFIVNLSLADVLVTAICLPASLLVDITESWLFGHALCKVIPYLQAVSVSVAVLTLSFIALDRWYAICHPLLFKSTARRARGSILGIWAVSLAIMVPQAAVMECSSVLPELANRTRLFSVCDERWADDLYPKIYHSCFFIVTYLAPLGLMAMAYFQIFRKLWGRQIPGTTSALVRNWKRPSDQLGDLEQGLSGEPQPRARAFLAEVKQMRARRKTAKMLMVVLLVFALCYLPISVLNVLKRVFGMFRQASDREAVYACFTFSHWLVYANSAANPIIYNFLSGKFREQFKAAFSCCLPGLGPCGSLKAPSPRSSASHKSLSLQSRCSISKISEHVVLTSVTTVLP

[9] = target: T2, Orexin/Hypocretin receptor type 1; experiment: Fluorescence-based cell-based high throughput dose response assay for antagonists of the orexin 1 receptor (OX1R; HCRTR1). [Related pubchem assays (depositor defined):AID434989, AID435008, AID463079, AID485270, AID492963, AID492964, AID492965, AID493232, AID504717, AID504718]; assay type: functional
Orexin receptor type 2 [10] = target: T3, Orexin receptor type 2 (Homo sapiens, UniProt O43614); experiment: Counterscreen assay for antagonists of the orexin 1 receptor (OX1R; HCRTR1): Fluorescence-based cell-based dose response assay for antagonists of the orexin 2 receptor (OX2R; HCRTR2), run by assay provider.; assay type: functional
T3 sequence (O43614 whole entry): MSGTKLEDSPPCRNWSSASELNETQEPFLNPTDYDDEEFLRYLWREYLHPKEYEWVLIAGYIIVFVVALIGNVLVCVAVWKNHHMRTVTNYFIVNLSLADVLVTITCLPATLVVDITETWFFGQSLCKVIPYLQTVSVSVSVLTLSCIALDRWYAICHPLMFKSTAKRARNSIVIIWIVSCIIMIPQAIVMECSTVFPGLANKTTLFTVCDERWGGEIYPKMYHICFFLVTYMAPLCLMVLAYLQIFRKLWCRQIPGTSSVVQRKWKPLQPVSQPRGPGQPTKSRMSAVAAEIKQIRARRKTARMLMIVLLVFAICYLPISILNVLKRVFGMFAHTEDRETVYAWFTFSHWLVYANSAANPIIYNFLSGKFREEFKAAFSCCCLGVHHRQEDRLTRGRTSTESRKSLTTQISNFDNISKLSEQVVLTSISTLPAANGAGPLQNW

Orexin receptor type 2 [11] = target: T3, Orexin receptor type 2; experiment: Counterscreen assay for antagonists of the orexin 1 receptor (OX1R; HCRTR1): Homogeneous Time Resolved Fluorescence (HTRF)-based cell-based dose response assay for antagonists of the orexin 2 receptor (OX2R; HCRTR2), run by assay provider.; assay type: functional
[12] = target: G-protein coupled receptor 55 (Homo sapiens, UniProt Q9Y2T6); experiment: inhibition of LPI-stimulated GPR55 beta-arrestin translocation – imaging, U2OS, beta-arrestin-GFP, LPI agonist, primary screen (AID 2013); assay type: functional;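 also: antagonist potency measured as reduced agonist-driven arrestin aggregation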
Ephrin type-A receptor 4 = Ephrin type-A receptor 4 (Mus musculus, UniProt Q03137); experiment: EphA4 ligand-binding antagonists – biochemical, colorimetric, mouse EphA4, primary screen (AID 689); assay type: functional
[13] = target: Botulinum neurotoxin type A (Clostridium botulinum (strain Hall / ATCC 3502 / NCTC 13319 / Type A), UniProt P0DPI1); experiment: High-throughput multiplex microsphere dose response for inhibitors of toxin protease, specifically Botulinum neurotoxin light chain A protease, compounds from Cherry Pick 01.; assay type: functional; details: read-out: EC50_MICROM
[14] = target: Voltage-dependent T-type calcium channel subunit alpha-1H (Homo sapiens, UniProt O95180); assay type: functional;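 also: channel activity triggered by adding a high calcium stimulation buffer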
[15] = target: T4, High affinity choline transporter 1 (Homo sapiens, UniProt Q9GZV3); experiment: human choline transporter potentiators, potency – cell-based, 10-point CRC, membrane potential dye, dose response (AID 602376); assay type: functional
T4 sequence (Q9GZV3 whole entry): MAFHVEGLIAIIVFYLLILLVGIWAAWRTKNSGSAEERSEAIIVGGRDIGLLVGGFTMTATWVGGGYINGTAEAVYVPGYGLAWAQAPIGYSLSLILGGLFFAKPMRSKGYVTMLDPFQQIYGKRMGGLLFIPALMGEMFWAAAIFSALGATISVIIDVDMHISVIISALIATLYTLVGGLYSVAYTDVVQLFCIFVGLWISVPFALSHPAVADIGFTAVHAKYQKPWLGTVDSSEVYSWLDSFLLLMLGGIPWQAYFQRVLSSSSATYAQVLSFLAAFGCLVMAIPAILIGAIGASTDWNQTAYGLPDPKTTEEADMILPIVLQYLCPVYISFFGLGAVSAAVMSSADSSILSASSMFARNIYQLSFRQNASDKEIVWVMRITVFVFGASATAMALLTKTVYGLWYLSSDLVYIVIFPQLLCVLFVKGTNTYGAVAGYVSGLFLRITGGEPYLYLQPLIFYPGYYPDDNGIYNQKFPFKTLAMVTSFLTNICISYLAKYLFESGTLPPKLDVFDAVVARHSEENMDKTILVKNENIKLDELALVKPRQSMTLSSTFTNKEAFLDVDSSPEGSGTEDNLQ

[16] = target: ALK tyrosine kinase receptor (Homo sapiens, UniProt Q9UM73); assay type: functional;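 also: ALK tested as one member of a kinase panel screen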
ALK tyrosine kinase receptor, sequence (Q9UM73 whole entry): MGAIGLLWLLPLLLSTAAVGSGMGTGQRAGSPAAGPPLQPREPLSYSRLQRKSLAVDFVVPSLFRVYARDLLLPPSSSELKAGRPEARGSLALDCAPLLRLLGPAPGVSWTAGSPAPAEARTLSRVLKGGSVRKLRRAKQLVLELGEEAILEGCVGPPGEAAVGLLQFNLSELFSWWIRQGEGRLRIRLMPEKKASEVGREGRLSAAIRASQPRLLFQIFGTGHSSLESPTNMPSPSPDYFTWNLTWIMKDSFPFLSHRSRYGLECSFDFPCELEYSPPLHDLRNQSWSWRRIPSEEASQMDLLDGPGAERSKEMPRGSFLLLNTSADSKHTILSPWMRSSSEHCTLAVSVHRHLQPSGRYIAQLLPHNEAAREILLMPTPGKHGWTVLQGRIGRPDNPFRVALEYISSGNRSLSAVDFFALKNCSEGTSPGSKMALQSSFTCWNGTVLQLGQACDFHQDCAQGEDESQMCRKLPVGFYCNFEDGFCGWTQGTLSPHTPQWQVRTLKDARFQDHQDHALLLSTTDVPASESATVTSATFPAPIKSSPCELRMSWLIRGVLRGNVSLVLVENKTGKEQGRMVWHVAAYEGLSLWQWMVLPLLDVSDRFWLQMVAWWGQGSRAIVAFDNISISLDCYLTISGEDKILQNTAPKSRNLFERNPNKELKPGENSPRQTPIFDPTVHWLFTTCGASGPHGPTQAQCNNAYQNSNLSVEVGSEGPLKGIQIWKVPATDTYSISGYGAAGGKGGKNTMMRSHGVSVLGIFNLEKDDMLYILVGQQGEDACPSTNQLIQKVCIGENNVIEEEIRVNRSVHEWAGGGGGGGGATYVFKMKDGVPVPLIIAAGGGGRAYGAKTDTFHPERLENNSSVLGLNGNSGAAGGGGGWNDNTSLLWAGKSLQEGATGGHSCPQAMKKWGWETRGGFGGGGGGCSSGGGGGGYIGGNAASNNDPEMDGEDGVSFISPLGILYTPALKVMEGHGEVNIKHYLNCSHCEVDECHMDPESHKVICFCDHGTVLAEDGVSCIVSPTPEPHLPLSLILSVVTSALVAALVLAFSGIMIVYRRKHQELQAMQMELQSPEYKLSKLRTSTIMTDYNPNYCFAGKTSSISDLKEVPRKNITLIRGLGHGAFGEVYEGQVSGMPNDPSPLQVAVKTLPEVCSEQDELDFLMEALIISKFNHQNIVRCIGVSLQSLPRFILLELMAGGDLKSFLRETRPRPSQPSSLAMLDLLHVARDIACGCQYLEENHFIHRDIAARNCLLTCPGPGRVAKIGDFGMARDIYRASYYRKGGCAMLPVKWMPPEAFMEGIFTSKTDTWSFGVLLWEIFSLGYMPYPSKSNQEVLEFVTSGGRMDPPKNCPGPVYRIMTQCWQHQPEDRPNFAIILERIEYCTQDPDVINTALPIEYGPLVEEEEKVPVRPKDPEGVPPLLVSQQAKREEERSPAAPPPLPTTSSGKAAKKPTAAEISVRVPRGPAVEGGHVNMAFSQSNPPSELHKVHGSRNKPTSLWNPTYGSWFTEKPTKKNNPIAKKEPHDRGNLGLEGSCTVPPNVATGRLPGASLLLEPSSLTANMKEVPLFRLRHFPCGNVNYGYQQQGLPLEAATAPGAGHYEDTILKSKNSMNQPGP

[17] = target: Cell division cycle 7-related protein kinase (Homo sapiens, UniProt O00311); assay type: functional;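 also: value obtained from a kinome-wide kinase panel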
Cell division cycle 7-related protein kinase, sequence (O00311 whole entry): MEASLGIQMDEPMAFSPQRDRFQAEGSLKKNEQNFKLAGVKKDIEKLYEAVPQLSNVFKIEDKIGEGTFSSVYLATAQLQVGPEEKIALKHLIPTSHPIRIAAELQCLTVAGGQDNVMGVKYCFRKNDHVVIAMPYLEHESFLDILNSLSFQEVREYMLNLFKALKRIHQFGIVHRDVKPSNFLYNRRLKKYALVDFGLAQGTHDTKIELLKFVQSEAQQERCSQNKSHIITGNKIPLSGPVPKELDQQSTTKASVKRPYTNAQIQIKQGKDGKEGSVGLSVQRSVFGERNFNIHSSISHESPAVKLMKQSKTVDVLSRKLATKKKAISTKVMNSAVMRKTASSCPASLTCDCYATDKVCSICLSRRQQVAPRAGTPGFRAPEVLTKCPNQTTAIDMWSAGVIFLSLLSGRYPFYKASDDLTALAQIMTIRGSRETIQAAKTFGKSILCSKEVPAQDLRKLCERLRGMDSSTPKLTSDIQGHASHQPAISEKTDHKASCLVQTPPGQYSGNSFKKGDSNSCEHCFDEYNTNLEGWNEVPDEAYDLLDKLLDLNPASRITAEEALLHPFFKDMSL

[18] = target: Sphingosine 1-phosphate receptor 1 (Homo sapiens, UniProt P21453); experiment: Late-stage fluorescence-based dose-response cell-based counterscreen assay to identify agonists of the Sphingosine 1-Phosphate Receptor 4 (S1P4): Sphingosine 1-Phosphate Receptor 1 (S1P1) agonist assay Set 2.; assay type: functional
[19] = target: Sphingosine 1-phosphate receptor 5 (Homo sapiens, UniProt Q9H228); experiment: activation of human S1P5 receptor – cell-based, fluorescence, set 2, counter-screen for S1P4 agonist project, late-stage follow-up (AID 504867); assay type: functional
[20] = target: Sphingosine 1-phosphate receptor 3 (Homo sapiens, UniProt Q99500); experiment: Late-stage fluorescence-based dose-response cell-based counterscreen assay to identify agonists of the Sphingosine 1-Phosphate Receptor 4 (S1P4): Sphingosine 1-Phosphate Receptor 3 (S1P3) agonist assay Set 2.; assay type: functional
Sphingosine 1-phosphate receptor 3, sequence (Q99500 whole entry): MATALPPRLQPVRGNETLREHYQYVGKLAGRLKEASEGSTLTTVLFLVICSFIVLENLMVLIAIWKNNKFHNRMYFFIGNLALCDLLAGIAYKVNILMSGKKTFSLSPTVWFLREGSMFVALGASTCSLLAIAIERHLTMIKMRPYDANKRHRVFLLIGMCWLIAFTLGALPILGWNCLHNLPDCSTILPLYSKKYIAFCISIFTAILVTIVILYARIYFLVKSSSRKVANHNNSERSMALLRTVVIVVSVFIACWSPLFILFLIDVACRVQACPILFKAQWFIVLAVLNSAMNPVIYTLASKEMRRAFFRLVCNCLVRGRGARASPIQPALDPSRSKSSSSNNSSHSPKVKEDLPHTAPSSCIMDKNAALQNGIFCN

[21] = target: Sphingosine 1-phosphate receptor 2 (Homo sapiens, UniProt O95136); experiment: activation of human S1P2 receptor – cell-based, fluorescence, set 2, counter-screen for S1P4 agonist project, late-stage follow-up (AID 504873); assay type: functional
Sphingosine 1-phosphate receptor 2, sequence (O95136 whole entry): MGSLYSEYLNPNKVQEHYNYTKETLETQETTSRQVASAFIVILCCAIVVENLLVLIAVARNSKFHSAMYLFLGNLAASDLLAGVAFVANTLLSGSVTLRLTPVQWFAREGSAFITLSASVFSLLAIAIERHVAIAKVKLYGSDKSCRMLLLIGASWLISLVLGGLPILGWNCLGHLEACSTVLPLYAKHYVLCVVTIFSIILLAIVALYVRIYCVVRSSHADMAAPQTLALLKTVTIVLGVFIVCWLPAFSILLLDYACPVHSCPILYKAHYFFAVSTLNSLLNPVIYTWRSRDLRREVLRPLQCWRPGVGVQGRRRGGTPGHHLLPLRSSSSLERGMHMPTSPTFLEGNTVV

[22] = target: Protein disulfide-isomerase (Homo sapiens, UniProt P07237); experiment: inhibition of PDI-driven insulin aggregation – biochemical, turbidity, absorbance, cherry-picked samples, dose response (AID 602350); assay type: functional
Protein disulfide-isomerase, sequence (P07237 whole entry): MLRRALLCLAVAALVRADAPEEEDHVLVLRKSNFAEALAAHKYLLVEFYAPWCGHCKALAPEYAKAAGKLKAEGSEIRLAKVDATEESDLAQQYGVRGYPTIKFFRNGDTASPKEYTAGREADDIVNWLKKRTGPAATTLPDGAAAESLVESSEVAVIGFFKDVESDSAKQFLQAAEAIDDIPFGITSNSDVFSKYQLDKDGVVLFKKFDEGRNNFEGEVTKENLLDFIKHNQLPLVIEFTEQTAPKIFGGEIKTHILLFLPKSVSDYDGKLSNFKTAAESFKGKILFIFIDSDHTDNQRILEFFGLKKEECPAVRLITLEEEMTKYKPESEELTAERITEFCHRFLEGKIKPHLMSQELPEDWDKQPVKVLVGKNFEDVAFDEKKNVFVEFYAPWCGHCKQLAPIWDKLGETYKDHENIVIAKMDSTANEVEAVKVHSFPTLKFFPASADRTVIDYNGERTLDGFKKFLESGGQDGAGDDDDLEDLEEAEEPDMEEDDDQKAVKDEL

[23] = P. falciparum Dd2 growth inhibitors, dose response, SYBR Green, cherry-picked samples (AID 1159567); assay type: functional, cell-based
[24] = target: Mitogen-activated protein kinase 8 (Homo sapiens, UniProt P45983); assay type: functional;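 also: value comes from one member of a kinome-wide kinase profiling panel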
[25] = target: Serine/threonine-protein kinase pim-1 (Homo sapiens, UniProt P11309); assay type: functional
Serine/threonine-protein kinase pim-1, sequence (P11309 whole entry): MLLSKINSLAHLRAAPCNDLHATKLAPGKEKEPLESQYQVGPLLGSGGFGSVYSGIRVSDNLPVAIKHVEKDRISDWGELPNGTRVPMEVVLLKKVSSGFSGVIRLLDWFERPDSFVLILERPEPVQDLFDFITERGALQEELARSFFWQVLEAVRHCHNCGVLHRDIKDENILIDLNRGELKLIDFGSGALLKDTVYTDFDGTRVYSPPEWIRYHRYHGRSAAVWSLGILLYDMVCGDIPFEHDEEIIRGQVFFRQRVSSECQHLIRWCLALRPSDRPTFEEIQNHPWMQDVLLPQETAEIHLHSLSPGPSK

[26] = target: Serine/threonine-protein kinase Chk1 (Homo sapiens, UniProt O14757); assay type: functional;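 also: measured as one member of a kinome-wide kinase profiling panel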
[27] = target: Dual specificity protein kinase CLK4 (Homo sapiens, UniProt Q9HAZ1); assay type: functional
[28] = target: cAMP-dependent protein kinase catalytic subunit PRKX (Homo sapiens, UniProt P51817); assay type: functional
[29] = target: Inhibitor of nuclear factor kappa-B kinase subunit epsilon (Homo sapiens, UniProt Q14164); experiment: Navigating the Kinome. Panel member name: IKBKE; assay type: functional
Inhibitor of nuclear factor kappa-B kinase subunit epsilon, sequence (Q14164 whole entry): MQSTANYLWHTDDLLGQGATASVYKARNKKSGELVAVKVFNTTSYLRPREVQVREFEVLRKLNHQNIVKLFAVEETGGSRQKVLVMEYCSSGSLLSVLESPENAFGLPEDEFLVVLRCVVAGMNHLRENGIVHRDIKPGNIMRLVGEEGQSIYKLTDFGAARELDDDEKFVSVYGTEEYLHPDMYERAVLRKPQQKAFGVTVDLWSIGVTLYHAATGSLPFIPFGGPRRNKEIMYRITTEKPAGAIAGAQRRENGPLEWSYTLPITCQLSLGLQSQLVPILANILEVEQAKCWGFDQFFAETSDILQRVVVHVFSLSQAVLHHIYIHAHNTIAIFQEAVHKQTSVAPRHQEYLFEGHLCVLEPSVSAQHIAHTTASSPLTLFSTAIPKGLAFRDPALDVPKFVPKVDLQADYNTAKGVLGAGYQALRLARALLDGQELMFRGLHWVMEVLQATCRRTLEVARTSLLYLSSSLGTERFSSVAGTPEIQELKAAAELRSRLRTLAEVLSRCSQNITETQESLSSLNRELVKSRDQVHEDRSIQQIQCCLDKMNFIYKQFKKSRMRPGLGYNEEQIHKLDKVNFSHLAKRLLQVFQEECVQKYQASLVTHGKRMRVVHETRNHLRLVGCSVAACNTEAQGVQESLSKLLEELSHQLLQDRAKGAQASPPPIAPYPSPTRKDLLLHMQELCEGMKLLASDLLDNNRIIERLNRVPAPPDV

Wee1-like protein kinase = Wee1-like protein kinase (Homo sapiens, UniProt P30291); experiment: Navigating the Kinome. Panel member name: WEE1; assay type: functional

CNc1nc(SCc2ccccc2Cl)nc2c1CCCC2
CC50 [1]: 9.68 µM (active)
AC50 [2]: 8.66 µM (active)
EC50 [3]: 4.73 µM (active)
CC50 [4]: 49.2 µM (active)
CC50 [5]: 25.6 µM (active)
CC50 [6]: 36.2 µM (active)

O=[N+]([O-])c1c(O)nc2ccc(Cl)cc2c1-c1ccccc1
IC50 (CHO-K1): > 66.2 µM (inactive)
IC50 [7]: > 49.8 µM (inactive)
IC50 [8]: 0.915 µM (active)
IC50 [9]: > 49.8 µM (inactive)
IC50 (Orexin receptor type 2 [10]): > 88.8 µM (inactive)
IC50 (Orexin receptor type 2 [11]): 1.5 µM (active)

CCSc1nnc(-c2sc3nnc(-c4ccccc4)c(-c4ccccc4)c3c2N)o1
IC50 [12]: 2.44 µM (active)
IC50 (Ephrin type-A receptor 4): 4.62 µM (active)
AC50 [2]: 0.286 µM (active)
EC50 [13]: 6.9 µM (active)

CCN(CC)CCn1c(NCc2nc3ccccc3n2Cc2ccccc2)nc2ccccc21
EC50 [14]: 4.94 µM (active)
EC50 [15]: 11.4 µM (active)

O=c1cc(-c2ccccc2)nc(NC2CCCCC2)[nH]1
Ki [16]: > 5.01 µM (inactive)
Ki [17]: 0.251 µM (active)

CC/N=C1/S/C(=C/c2cc(C)n(-c3ccccn3)c2C)C(=O)N1CC
EC50 [18]: 0.103 µM (active)
EC50 [19]: 0.72 µM (active)
EC50 [20]: > 25 µM (inactive)
EC50 [21]: > 25 µM (inactive)

C[C@H](CO)N1C[C@H](C)[C@@H](CN(C)S(=O)(=O)c2ccccc2)Oc2ccc(NC(=O)Cc3cn(C)c4ccccc34)cc2C1=O
AC50 [22]: 0.125 µM (active)
AC50 [23]: 4.29 µM (active)

COc1ccc(C(=O)Nc2ccccc2C(=O)O)cc1OC
Ki [24]: 2.51 µM (active)
Ki [25]: 5.01 µM (active)
Ki [26]: 1.58 µM (active)
Ki [27]: 1.58 µM (active)

O=C(O)C1CN(Cc2ccc(OCc3cccc(C(F)(F)F)c3)cc2F)C1
Ki [28]: 2.51 µM (active)
Ki [29]: 3.16 µM (active)

CCN1CCN(c2ccc(Nc3ncc(Cl)c(Nc4ccc(O)c(NC(C)=O)c4)n3)cc2)CC1
Ki [16]: 0.501 µM (active)
Ki (Wee1-like protein kinase): 0.00794 µM (active)
